Results as given in article doi:10.1101/2025.02.17.638454, “Synergistic RAS-MAPK and AKT Activation in MYC-Driven Tumors via Adjacent PVT1 Rearrangements” (bioRxiv, 2025).
No end group written: not given here.

Columns and labels:
[1] = test system: phospho-MEK1/2, phospho-ERK1/2, phospho-p90RSK (RAS/MAPK pathway); test: Western blot of RAS/MAPK effectors in D458; assay type: cell-based
Procedure: For whole-cell lysate, the cell pellet was resuspended in RIPA buffer (Cell Signaling Technologies, Danvers, MA) supplemented with a protease inhibitor cocktail (Cell Signaling Technologies) and incubated on ice for 20 minutes. The lysate was then centrifuged at 14,000 revolutions/minute for 10 minutes at 4°C, and the supernatant was harvested. Protein concentration was quantified by BCA Protein Assay Kit (Thermo Fisher Scientific) as per kit protocol. Next, 20 μg of whole-cell lysate was electrophoresed on a 4%–20% gradient polyacrylamide gel with SDS (Bio-Rad, Hercules, CA) and electroblotted onto polyvinylidene difluoride membranes (Bio-Rad). Membranes were blocked in Tris-buffered saline with 5% nonfat milk and 0.1% Tween and probed with antibodies. Bound proteins were detected with horseradish-peroxidase–conjugated secondary antibodies (Cell Signaling Technologies) and SuperSignal West Femto (Thermo Fisher Scientific). […]
The HNB ORF and eGFP (control) were cloned in an inducible lentivirus expression, TRE-gateway plasmid (pLIX_403, Addgene, #41395). […] The protein lysates were collected and quantified using the previously described protocol. […] Bound proteins were detected with horseradish-peroxidase–conjugated secondary antibodies (Cell Signaling Technologies) and SuperSignal West Femto (Thermo Fisher Scientific). […]

MYC targets genes = test: GSEA MYC targets, D458; assay type: cell-based, human; conditions: D458, si.CircPVT1 vs si.Ctrl, n=3
Text: (§1) RNAseq processing: Raw reads were mapped to the hg19 human reference genome using the STAR aligner (v.2.5.0a) 66. PCR-duplicated reads and low mapping quality reads (MQ score below 20) were removed using Picard tools and SAMtools, respectively. Aligned reads were counted using htseq-count (v.0.6.1p1) 69 and normalized according to size factors method from DESeq2 70. We used fold change ≥2 and FDR <0.05 as the determination of differentially expressed genes (DEG). Statistical analysis and plots were performed inside R environment version 3.1.0. upload files)

HALLMARK_MYC_TARGETS = test: GSEA MYC targets, SK-PN-DW; assay type: cell-based, human; conditions: si.CircPVT1 vs si.Ctrl, n=3, Padj = 0.010
Text: as §1, with “Statistical analysis and plots were performed inside R environment version 3.1.0. upload files)” left out
Supplementary Figure 9: Gene set enrichment analysis scores (GSEA) analysis for MYC targets genes in COLODM320 (A,B) and SK-PN-DW (C,D) treated with si.CircPVT 1. si.Ctrl was used as control . n=3, for each treatment condition .
(also on this page, place not known: Enrichment Score Enrichment Score si.CircPVT1. control. condition. Enrichment Score Enrichment Score .CC-BY licenseavailable preprintthis https://doi.org/10.1101/2025.02.17.638454doi:) […]

Row | Substance | phosphorylation of MEK1/2, ERK1/2 and p90RSK ([1]; D458 (wild type KRAS), doxycycline-induced HNB, 1 μg/mL Dox 48 h, n=3, unpaired t-test) | ERK1/2 phosphorylation ([1]; D458, ectopic (doxycycline-inducible) expression, HNB vs mutant, Figure 5L) | MYC targets (GSEA) (MYC targets genes) | NES, HALLMARK_MYC_TARGETS_V1 (HALLMARK_MYC_TARGETS) | NES, HALLMARK_MYC_TARGETS_V2 (HALLMARK_MYC_TARGETS)
1 | MKTQLGAVKGFLHV [HNB] | significantly dampened the phosphorylation | significantly diminished ERK1/2 phosphorylation |  |  | 
2 | si.CircPVT1: siRNA targeting the junction sequence of CircPVT1, 5’-UGGGCUUGAGGCCUGAUCUUU-3’ (other strand not given here) |  |  | depletion of MYC targets | -1.653 | -1.789
